Columns and labels:
[1] = test system: CP70 (cell line), R179, R182, R585 (primary ovarian cancer explants); experiment: Cell viability, CellTiter 96 Aqueous One Solution Cell Proliferation Assay, ovarian cancer cells; format: cell-based, Human; conditions: concentrations up to 10 μg/ml, 24 hr exposure
Method: FIG. 1. Comparative cytotoxicity of dehydroequol and Compound I as described herein (Cpd 1) against normal and ovarian cancer cells: CP70 (cell line), R179, R182, R585 (primary ovarian cancer explants) and OSE (normal ovarian surface epithelial cells). […] Both compounds were tested at concentrations up to 10 μg/ml and exposed to cells for 24 hr.
Human EOC cell lines A2780, CP70, and OSE were propagated in RPMI plus 10% fetal bovine serum (FBS) (Gemini Bio-Products, Woodland, Calif.) at 37° C. in a 5% CO2 atmosphere. Primary EOC cells (R179, R182, R585) were isolated from malignant ovarian ascites and cultured as previously described (Kamsteeg et al., 2003). Dehydroequol and Compound 1 (Cpd 1) were obtained from Novogen (Australia). All other reagents were purchased from Sigma Chemical (St. Louis, Mo.). The pan caspase inhibitor Z-VAD-FMK was obtained from R&D Systems (Minneapolis, Minn.).
(§1) Cell viability was evaluated using the CellTiter 96 Aqueous One Solution Cell Proliferation Assay (Promega, Madison, Wis.) according to the manufacturer's instructions. The values from the treated cells were compared with the values generated from the untreated cells and reported as percent viability. Each experiment was performed in triplicate.

caspase 8 = experiment: Caspase-Glo 8 assay in R182 cells; format: cell-based, Human; conditions: R182 ovarian cancer explants; dose response and duration of exposure (5 μg/ml, 0-25 hr)
Method: FIG. 4. Comparative induction of caspase 8 in R182 ovarian cancer explants by Cpd 1 and dehydroequol using either dose response (A) or duration of exposure (B). Caspase 8 activity was assessed using the Caspase-Glo 8 assay.
(§2) For caspase activity assays, 10 μg of protein in 50 μL total volume was mixed with 50 μL of equilibrated Caspase-Glo 3/7, 8, or 9 reagents (Promega). After incubating at room temperature for 1 hour, luminescence was measured using TD 20/20 Luminometer (Turner Designs, Sunnyvale, Calif.). Blank values were subtracted and fold-increase in activity was calculated based on activity measured from untreated cells. Each sample was measured in triplicate.

ovarian cancer cells = experiment: Cell viability in presence of pan caspase inhibitor ZVAD-FMK; format: cell-based, Human; conditions: ZVAD-FMK 0.5 μg/ml
Method: FIG. 5. Comparative cell viability plots of dehydroequol (A) and Cpd 1 (B) treated cells in the presence and absence of the pan caspase inhibitor ZVAD-FMK (0.5 μg/ml).
as §1

caspase 3 [2] = experiment: Caspase 3 activity in xenograft tumour sections; format: in vivo, SCID mice; conditions: tumour-bearing mice; not shown
caspase 9 = experiment: Caspase-Glo 9 assay in R182 cells; format: cell-based, Human; conditions: R182 ovarian cancer explants; dose response and duration of exposure (5 μg/ml, 0-25 hr)
Method: FIG. 3. Comparative induction of caspase 9 in R182 ovarian cancer explants by Cpd 1 and dehydroequol using either dose response (A) or duration of exposure (B). Caspase 9 activity was assessed using the Caspase-Glo 9 assay.
as §2

caspase 3 [3] = experiment: Caspase-Glo 3/7 assay in R182 cells; format: cell-based, Human; conditions: R182 ovarian cancer explants; dose response and duration of exposure (5 μg/ml, 0-25 hr)
Method: FIG. 2. Comparative induction of caspase 3 in R182 ovarian cancer explants by Cpd 1 and dehydroequol using either dose response (A) or duration of exposure (B). Caspase 3 activity was assessed using the Caspase-Glo 3/7 assays.
as §2

Oc1ccc(C2=Cc3ccc(O)cc3OC2)cc1 [Dehydroequol, reference compound]
cell viability of ovarian cancer cells [1]: does not exhibit this pan activity
caspase 8 activity (caspase 8): activation of caspase 8 is time (5 μg/ml) and dose dependent
cell death in the presence of pan caspase inhibitor ZVAD-FMK (ovarian cancer cells): apoptosis was inhibited
caspase 3 activity in tumour sections (caspase 3 [2]): observed only in tumour sections taken from mice dosed with dehydroequol
caspase 9 activity (caspase 9): activation of caspase 3 is time (5 μg/ml) and dose dependent
caspase 3 activity (caspase 3 [3]): activation of caspase 3 is time (5 μg/ml) and dose dependent

From patent publication US20100173983A1, “METHOD FOR INDUCING AUTOPHAGY” (priority 2007, published 2010)
